# Values quoted from earlier work in patent publication US20100322880A1, “UVA FILTERS BASED ON ASCORBIC ACID DERIVATIVES” (Merck Patent GmbH, priority 2008, published 2010).
# Tested on: prolyl-4-hydroxylase
# Conditions: for supporting the activity of the enzyme prolyl-4-hydroxylase: literature statement, no figures
Structure (SMILES),supporting the activity of the enzyme prolyl-4-hydroxylase,affinity to the enzyme (disubstituted compared with the monosubstituted compound)
CC(=O)Oc1ccccc1C(=O)OC[C@H](O)[C@H]1OC(=O)C(O)=C1O [O^6-(2-acetoxybenzoyl) L-ascorbate],capable of supporting the activity,
CC(=O)Oc1ccccc1C(=O)OC[C@H](OC(=O)c1ccccc1OC(C)=O)[C@H]1OC(=O)C(O)=C1O [O^5O^6-bis(2-acetoxybenzoyl) L-ascorbate],capable of supporting the activity,lower affinity
